The term IC50 denotes the concentration that inhibits the measured activity by half. As usually defined, the EC50 is the concentration at which the effect is half-maximal.

Experimental findings from ChEMBL document CHEMBL1177693, “Antimalarials from nature” (Bioorg Med Chem, 2009) are described below.

Values after ≈ are worked out from the molar mass of the structure shown. Where only a bound is given, the exact number is not on record here.

In one assay the test system is Plasmodium falciparum. The assay is described as follows: Antimalarial activity against multidrug-resistant Plasmodium falciparum K1.
Conditions: not given
It counts as functional, organism-based.
With `Cc1c2ccncc2c(C)c2c1[nH]c1ccccc12` [ELLIPTECINE], the IC50 is 0.073 µM.

In turn, `CN1C2=CC(O)=c3ccccc3=NC2c2ccccc21` (stereo not given) [CRYPTOHEPTINE] had an IC50 of 0.8 µM.

A further assay relates to Plasmodium falciparum. As to the kind of experiment: Antimalarial activity against Plasmodium falciparum K1. Type of assay: functional, organism-based.
Conditions: not given
With `CC(C)[C@@H]1OC(=O)[C@@H](Cc2ccccc2)N(C)C(=O)[C@H](C(C)C)OC(=O)[C@@H](Cc2ccccc2)N(C)C(=O)[C@H](C(C)C)OC(=O)[C@@H](Cc2ccccc2)N(C)C1=O` [BEAUVERICIN], the midpoint of the response, the EC50, lay at 1.6 µg/mL (≈ 2.04 µM).

Consider `CCN(CC)CCOc1cc2oc3cc(O)c(CC=C(C)C)c(O)c3c(=O)c2c(CC=C(C)C)c1OC`, for which the IC50 was under 1 µM.

Take `COc1c(OCCCN(C)C)cc2oc3cc(O)c(CC=C(C)C)c(O)c3c(=O)c2c1CC=C(C)C`: the IC50 was under 1 µM.

`COc1ccc2c3c1O[C@H]1C[C@@H](O)C=C[C@@]31CCN(C)C2` [GALANTAMINE] displayed an IC50 of 4.38 µg/mL.

As for `CO[C@@H]1C=C[C@@]23c4cc5c(cc4CO[C@]2(O)CN(C)[C@H]3C1)OCO5` [TAZETTINE], inhibition was half-maximal at 5.42 µg/mL (IC50).

The compound `COC(=O)C[C@H]1[C@]2(C)C3=C(C)[C@H](c4ccoc4)C[C@H]3O[C@@H]2[C@@H]2OC(=O)[C@]3(C)C=CC(=O)[C@@]1(C)[C@@H]23` [NIMBOLIDE] registered an EC50 of 0.00095 µg/mL (≈ 0.00204 µM).

`CC[C@H](C)[C@H]1OC(=O)[C@H](Cc2ccccc2)N(C)C(=O)[C@@H](C(C)C)OC(=O)[C@H](Cc2ccccc2)N(C)C(=O)[C@@H](C(C)C)OC(=O)[C@H](Cc2ccccc2)N(C)C1=O` [BEAUVERICIN A] gave an EC50 of 12 µg/mL (≈ 15 µM).

Regarding `C[C@H]1C/C=C/[C@@H](O)[C@@H](O)CC/C=C/c2cc(O)cc(O)c2C(=O)O1` [AIGIALOMYCIN D], the IC50 is 6.6 µg/mL.

Consider `CCN(CC)CC(O)COc1cc2oc3cc(O)c(CC=C(C)C)c(O)c3c(=O)c2c(CC=C(C)C)c1OC` (stereo not given), for which the IC50 was under 1 µM.

The next assay relates to Plasmodium falciparum. The assay is described as follows: Antimalarial activity against chloroquine-resistant Plasmodium falciparum Dd2. It counts as functional, organism-based.
Conditions: not given
The compound `COc1ccc(-c2cc(=O)oc3c(OC)c(OC)cc(OC)c23)cc1` returned an IC50 of 3.6 µg/mL (≈ 10.5 µM).

Regarding `C=C1C(=O)O[C@H]2[C@H]1[C@@H](OC(C)=O)CC(=C)[C@]1(O)CC=C(C)[C@H]21`, the IC50 was 10.8 µg/mL (≈ 35.5 µM).

A further assay concerns Plasmodium falciparum. As to the kind of experiment: Antimalarial activity against Plasmodium falciparum W2.
Conditions: not given
Type of assay: functional, organism-based.
As for `CN1CCc2cc3c(c4c2c1cc1ccccc14)OCO3` [DEHYDROROEMERINE], inhibition was half-maximal at 0.36 µM (IC50). In other words, the sub-micromolar range.

As to `COc1cc2c(cc1OC)[C@@H]1Cc3ccc(OC)c(OC)c3CN1CC2` [TETRAHYDROPALMATINE], inhibition was half-maximal at 32.6 µM (IC50). This IC50 lies about 91-fold higher than the previous one.

For the compound `COc1ccc2cc1Oc1ccc(cc1)C[C@H]1c3c(cc4c(c3Oc3cc5c(cc3OC)CCN(C)[C@@H]5C2)OCO4)CCN1C` [CEPHARANTHINE], 0.61 µM corresponded to half-maximal inhibition (IC50).

Consider `COc1cc2c(cc1OC)CN1CCc3cc(OC)c(OC)cc3[C@@H]1C2` [XYLOPININE], for which the IC50 amounted to 52.3 µM.

The test system of a further assay is Plasmodium falciparum. As to the kind of experiment: Antimalarial activity against chloroquine-resistant Plasmodium falciparum. Type of assay: functional, organism-based.
Conditions: not given
Compound `COc1ccc([C@@H]2Oc3cc(O)cc(O)c3C(=O)[C@H]2[C@H]2C(=O)c3c(O)cc(O)cc3O[C@H]2c2ccc(O)cc2)cc1` [SIKOKIANIN B] returned an IC50 of 0.54 µg/mL (≈ 0.97 µM).

As to `COc1ccc([C@H]2Oc3cc(O)cc(O)c3C(=O)[C@@H]2[C@H]2C(=O)c3c(O)cc(O)cc3O[C@@H]2c2ccc(O)cc2)cc1` [SIKOKIANIN C], the IC50 worked out at 0.56 µg/mL (≈ 1.01 µM).

The next assay has as its system Plasmodium falciparum. The assay is described as follows: Antimalarial activity against chloroquine-resistant Plasmodium falciparum FCB1. It counts as functional, organism-based. The settings on record: FcB1/Columbia.
As for `O=C(O[C@H]1Cc2c(O)cc(O)cc2O[C@@H]1c1ccc(O)c(O)c1)c1cc(O)c(O)c(O)c1` [CATECHIN GALLATE], the half-inhibitory concentration (IC50) was found to be 1 µM. That is a single-digit micromolar value.

The subject of the next assay is Plasmodium falciparum. As to the kind of experiment: Antimalarial activity against chloroquine-sensitive Plasmodium falciparum D6. Type of assay: functional, organism-based.
Conditions: not given
Turning to `O=C(O)[C@@H]1[C@H](C(=O)O)[C@H]2CC[C@@H]1O2` [ENDOTHALL], the IC50 turned out to be 7.8 µM.

Compound `C/C=C/C/C=C/CCC(=O)[C@H]1O[C@H]1C(N)=O` [CERULENIN] gave an IC50 of 10.1 µM. This IC50 and that of the compound before are within 1.5-fold of each other.

With `COc1ccc(C[C@H]2NC[C@H](O)[C@H]2OC(C)=O)cc1` [ANISOMYCIN], the half-maximal inhibitory concentration (IC50) was determined as 4.6 µM.

For another assay, the target named is T1, Enoyl-acyl-carrier protein reductase (Plasmodium falciparum, UniProt Q965D5).
T1 sequence (Q965D5 whole entry): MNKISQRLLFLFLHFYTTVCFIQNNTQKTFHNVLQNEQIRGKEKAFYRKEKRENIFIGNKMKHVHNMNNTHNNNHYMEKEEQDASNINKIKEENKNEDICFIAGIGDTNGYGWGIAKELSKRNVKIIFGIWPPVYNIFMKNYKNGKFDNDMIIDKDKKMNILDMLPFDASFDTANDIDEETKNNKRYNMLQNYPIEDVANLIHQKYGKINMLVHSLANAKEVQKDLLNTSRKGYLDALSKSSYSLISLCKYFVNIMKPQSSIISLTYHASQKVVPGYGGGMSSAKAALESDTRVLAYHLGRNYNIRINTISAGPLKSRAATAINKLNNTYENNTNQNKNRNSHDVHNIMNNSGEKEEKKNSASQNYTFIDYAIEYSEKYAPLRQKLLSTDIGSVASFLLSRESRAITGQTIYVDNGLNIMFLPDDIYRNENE
As to the kind of experiment: Inhibition of Plasmodium falciparum Fabl.
Conditions: not given
In the case of `O=c1cc(-c2ccc(O)c(O)c2)oc2cc(O[C@@H]3O[C@H](CO)[C@@H](O)[C@H](O)[C@H]3O)cc(O)c12` [GALUTEOLIN], half-maximal inhibition (IC50) was put at 22.3 µM.

`OCC1=C[C@@H]2OCC[C@@H]2[C@@H]1CO` had an IC50 of 588 µM.
